Laboratory results: US7038049B2, “Haloanilino quinazolines and therapeutic use thereof” (Parker Hughes Institute, priority 1999, dated 2006)
pIC50: −log10 of the molar value.

Columns and labels:
Type in all cases: cell-based
Conditions in all cases: 24–36 hours
[1] = tested on: BT20 human breast cancer cells; test: MTT cytotoxicity assay, BT20
Method: (§1) The cytotoxicity assay of various compounds against human tumor cell lines was performed using the MTT (3-[4,5-dimethylthiazol-2-yl]-2,5-diphenyl tetrazolium bromide) assay (Boehringer Mannheim Corp., Indianapolis, Ind.). Briefly, exponentially growing tumor cells were seeded into a 96-well plate at a density of 2.5×10^4 cells/well and incubated for 36 hours at 37° C. prior to drug exposure. On the day of treatment, culture medium was carefully aspirated from the wells and replaced with fresh medium containing the quinazoline compounds at concentrations ranging from 0.1 to 250 μM. Triplicate wells were used for each treatment.
(§2) Human cell lines were obtained from American Type Culture Collection (Rockville, Md.) and maintained as a continuous cell line in Dulbecco's modified Eagles' medium supplemented with 10% fetal bovine serum and antibiotics. Cells used in this study include human leukemia cells (NALM-6 and MOLT-3), human breast cancer cells ([…]), human prostate cancer cells (PC3), and human brain tumor cells (U373).
(§3) The cells were incubated with the various compounds for 24–36 hours at 37° C. in a humidified 5% CO2 atmosphere. To each well, 10 μl of MTT (0.5 mg/ml final concentration) was added and the plates were incubated at 37° C. for 4 hours to allow MTT to form formazan crystals by reacting with metabolically active cells. The formazan crystals were solubilized overnight at 37° C. in a solution containing 10% SDS in 0.01 M HCl. The absorbance of each well was measured in a microplate reader (Labsystems) at 540 nm and a reference wavelength of 690 nm. To translate the OD 540 values into the number of live cells in each well, the OD 540 values were compared to those on standard OD 540—versus—cell number curves generated for each cell line. The percent survival was calculated using the formula:
(§4) [formula] The IC50 values were calculated by non-linear regression analysis. Detection of Apoptosis

[2] = tested on: MOLT-3 human leukemia cells; test: MTT cytotoxicity assay, MOLT-3
Method: as §1, §2, §3, §4

[3] = tested on: NALM-6 human leukemia cells; test: MTT cytotoxicity assay, NALM-6
Method: as §1, §2, §3, §4

[4] = tested on: U373 human brain tumor cells; test: MTT cytotoxicity assay, U373
Method: as §1, §2, §3, §4

[5] = Homo sapiens, BT-20, Table 1, bromo substituted
[6] = Homo sapiens, MOLT-3, Table 1, bromo substituted
[7] = Homo sapiens, NALM-6, Table 1, bromo substituted
[8] = Homo sapiens, BT-20, Table 2, chloro substituted
[9] = Homo sapiens, MOLT-3, Table 2, chloro substituted
[10] = Homo sapiens, NALM-6, Table 2, chloro substituted
[11] = Homo sapiens, U373 MG, Table 4, OH substituted
[12] = Homo sapiens, BT-20, Table 4, OH substituted
[13] = Homo sapiens, MOLT-3, Table 4, OH substituted
[14] = Homo sapiens, NALM-6, Table 4, OH substituted
[15] = Homo sapiens, U373 MG, Table 3, iodide substituted
[16] = Homo sapiens, BT-20, Table 3, iodide substituted
[17] = Homo sapiens, MOLT-3, Table 3, iodide substituted
[18] = Homo sapiens, NALM-6, Table 3, iodide substituted

For `COc1cc2ncnc(Nc3cccc(Br)c3)c2cc1OC` [HI-P79, 4-(3′-Bromophenyl)-amino-6,7-dimethoxyquinazoline], the pIC50 [1, 5] was 3.70, the pIC50 [2, 6] was 3.71 and the pIC50 [3, 7] was 3.85.

`COc1cc2ncnc(Nc3cccc(Cl)c3)c2cc1OC` [HI-P87, 4-(3′-Chlorophenyl)-amino-6,7-dimethoxyquinazoline] showed a pIC50 [1, 8] of under 3.60, a pIC50 [2, 9] of under 3.98 and a pIC50 [3, 10] of 4.02.

In the case of `COc1cc2ncnc(Nc3ccc(Br)cc3C(=O)O)c2cc1OC` [HI-P88, 4-(4′-Bromo-2′-caboxylphenyl)-amino-6,7-dimethoxyquinazoline], the pIC50 [1, 5] was under 3.60, the pIC50 [2, 6] was under 3.60 and the pIC50 [3, 7] was under 3.60.

Molecule `COc1cc2ncnc(Nc3cc(Cl)ccc3O)c2cc1OC` [HI-P93, 4-(3′-Chlooro-6′-hydroxylphenyl)amino-6,7-dimethoxyquinazoline] has a pIC50 [4, 11] of under 3.60, a pIC50 [1, 8] of under 3.60 and a pIC50 [1, 12] of under 3.60. For the same molecule, the pIC50 [2, 9] was under 3.60, the pIC50 [2, 13] was under 3.60 and the pIC50 [3, 10] was under 3.60. It also gave a pIC50 [3, 14] of under 3.60.

`COc1cc2ncnc(Nc3cc(Br)c(O)c(Br)c3)c2cc1OC` [HI-P97, 4-(3′,5′-Dibromo-4′-hydroxylphenyl)-amino-6,7-dimethoxyquinazoline] was tested, and the pIC50 [4, 11] was 3.79, the pIC50 [1, 5] was 4.58 and the pIC50 [2, 6] was under 3.60. It also gave a pIC50 ([2]; Table 4, OH substituted) of under 3.60, a pIC50 [3, 7] of under 3.60 and a pIC50 ([3]; Table 4, OH substituted) of under 3.60.

`COc1cc2ncnc(Nc3ccc(C)c(Br)c3)c2cc1OC` [HI-P111, 4-(3′-Bromo-4′-methylphenyl)-amino-6,7-dimethoxyquinazoline] was tested, and the pIC50 [1, 5] was under 3.60, the pIC50 [2, 6] was under 3.60 and the pIC50 [3, 7] was 3.70.

`COc1cc2ncnc(Nc3ccc(O)c(Br)c3)c2cc1OC` [HI-P154, 4-(3′-Bromo-4′-hydroxylphenyl)-amino-6,7-dimethoxyquinazoline] gave a pIC50 [1, 5] of under 3.60, a pIC50 ([1]; Table 4, OH substituted) of under 3.60 and a pIC50 [2, 6] of 5.04. It also gave a pIC50 [3, 7] of 4.90.

Work on `COc1cc2ncnc(Nc3ccc4c(c3)Cc3cc(Br)ccc3-4)c2cc1OC` [HI-P160, 4-[(7′-Bromofluorene)-2′]-amino-6,7-dimethoxyquinazoline] yielded a pIC50 [1, 5] of 4.59, a pIC50 [2, 6] of 3.62 and a pIC50 [3, 7] of 3.87.

`COc1cc2ncnc(C(=O)c3cccc(Br)c3)c2cc1OC` [HI-P164, 4-(3′-Bromobenzoyl)-6,7-dimethoxyquinazoline] was tested, and the pIC50 [1, 5] was 4.41, the pIC50 [2, 6] was under 3.60 and the pIC50 [3, 7] was under 3.60.

`COc1cc2ncnc(Nc3cc(Cl)c(O)c(Cl)c3)c2cc1OC` [HI-P189, 4-(4′-Hydroxyl-3′,5′-dichlorophenyl)amino-6,7-dimethoxyquinazoline] was tested, and the pIC50 [4, 11] was under 3.60, the pIC50 [1, 8] was under 3.60 and the pIC50 [1, 12] was under 3.60. The pIC50 [2, 9] was under 3.60, the pIC50 [2, 13] was under 3.60 and the pIC50 [3, 10] was under 3.60. The pIC50 [3, 14] was under 3.60.

`COc1cc2ncnc(Nc3ccc(Br)cc3CO)c2cc1OC` [HI-P190, 4-(4′-Bromo-6′-hydroxymethylphenyl)-amino-6,7-dimethoxyquinazoline] was tested, and the pIC50 [4, 11] was under 3.60, the pIC50 [1, 5] was under 3.60 and the pIC50 [1, 12] was under 3.60. It also gave a pIC50 [2, 6] of under 3.60, a pIC50 [2, 13] of under 3.60 and a pIC50 [3, 7] of under 3.60. It also gave a pIC50 [3, 14] of under 3.60.

`COc1cc2ncnc(Nc3ccc(O)cc3O)c2cc1OC` [HI-P192, 4-(2′,4′-Dihydroxyphenyl)-amino-6,7-dimethoxyquinazoline] gave a pIC50 [4, 11] of under 3.60, a pIC50 [1, 12] of under 3.60 and a pIC50 [2, 13] of under 3.60. It also gave a pIC50 [3, 14] of under 3.60.

In the case of `COc1cc2ncnc(Nc3ccc(O)c(Cl)c3)c2cc1OC` [HI-P197, 4-(3′-Chloro-4′-hydroxylphenyl)-amino-6,7-dimethoxyquinazoline], the pIC50 [4, 11] was under 3.60, the pIC50 [1, 8] was 3.86 and the pIC50 [1, 12] was 4.15. For the same molecule, the pIC50 [2, 9] was 4.17, the pIC50 [2, 13] was 4.20 and the pIC50 [3, 10] was 4.41. It also gave a pIC50 [3, 14] of 4.16.

With `COc1cc2ncnc(Nc3ccc(C)c(Br)c3Br)c2cc1OC` [HI-P210, 4-(2′,3′-Dibromo-4′-methylphenyl)-amino-6,7-dimethoxyquinazoline] the pIC50 [1, 5] was under 3.60, the pIC50 [2, 6] was under 3.60 and the pIC50 [3, 7] was under 3.60.

With `COc1cc2ncnc(Nc3cc(Br)c(C)cc3Br)c2cc1OC` [HI-P211, 4-(2′,5′-Dibromo-4′-methylphenyl)-amino-6,7-dimethoxyquinazoline] the pIC50 [1, 5] was under 3.60, the pIC50 [2, 6] was under 3.60 and the pIC50 [3, 7] was under 3.60.

With `COc1cc2ncnc(Nc3cc(Br)c(C)c(Br)c3)c2cc1OC` [HI-P212, 4-(3′,5′-Dibromo-4′-methylphenyl)-amino-6,7-dimethoxyquinazoline] the pIC50 [1, 5] was under 3.60, the pIC50 [2, 6] was 4.26 and the pIC50 [3, 7] was 4.28.

With `COc1cc2ncnc(Nc3c(Br)cc(Br)cc3Br)c2cc1OC` [HI-P222, 4-(2′, 4′, 6′-Tribromophenyl)amino-6,7-dimethoxyquinazoline] the pIC50 [1, 5] was under 3.60, the pIC50 [2, 6] was 4.32 and the pIC50 [3, 7] was 4.47.

Molecule `COc1cc2ncnc(Nc3ccc(C)cc3)c2cc1OC` [HI-P234] has a pIC50 [1, 5] of under 3.60, a pIC50 [2, 6] of under 3.60 and a pIC50 [3, 7] of under 3.60.

`COc1cc2ncnc(Nc3c(Br)cc(C)cc3Br)c2cc1OC` [HI-P241, 4-(2′,6′-Dibromo-4′-methylphenyl)-amino-6,7-dimethoxyquinazoline] gave a pIC50 [1, 5] of under 3.60, a pIC50 [2, 6] of under 3.60 and a pIC50 [3, 7] of under 3.60.

For `COc1cc2ncnc(Nc3ccccc3)c2cc1OC` [HI-P258], the pIC50 [1, 5] was under 3.60, the pIC50 [2, 6] was under 3.60 and the pIC50 [3, 7] was under 3.60.

In the case of `COc1cc2ncnc(Nc3ccc(Br)cc3)c2cc1OC` [HI-P260, 4-(4′-Bromophenyl)-amino-6,7-dimethoxyquinazoline], the pIC50 [1, 5] was 4.09, the pIC50 [2, 6] was 4.29 and the pIC50 [3, 7] was 4.49.

With `COc1cc2ncnc(Nc3ccccc3Br)c2cc1OC` [HI-P261, 4-(2′-Bromophenyl)-amino-6,7-dimethoxyquinazoline] the pIC50 [1, 5] was 3.66, the pIC50 [2, 6] was 3.83 and the pIC50 [3, 7] was 4.14.

In the case of `COc1cc2ncnc(Nc3c(Br)cccc3Br)c2cc1OC` [HI-P262, 4-(2′,6′-Dibromophenyl)-amino-6,7-dimethoxyquinazoline], the pIC50 [1, 5] was under 3.60, the pIC50 [2, 6] was under 3.60 and the pIC50 [3, 7] was under 3.60.

`COc1cc2ncnc(Nc3ccccc3Cl)c2cc1OC` [HI-P268, 4-(2′-Chlorophenyl)-amino-6,7-dimethoxyquinazoline] was tested, and the pIC50 [1, 8] was 3.92, the pIC50 [2, 9] was 3.64 and the pIC50 [3, 10] was 3.67.

`COc1cc2ncnc(Nc3ccc(Cl)cc3)c2cc1OC` [HI-P269, 4-(4′-Chlorophenyl)-amino-6,7-dimethoxyquinazoline] gave a pIC50 [1, 8] of under 3.60, a pIC50 [2, 9] of under 3.60 and a pIC50 [3, 10] of under 3.60.

`COc1cc2ncnc(Nc3ccccc3I)c2cc1OC` [HI-P270, 4-(2′-Iodophenyl)-amino-6,7-dimethoxyquinazoline] gave a pIC50 [4, 15] of under 3.60, a pIC50 [1, 16] of under 3.60 and a pIC50 [2, 17] of 4.10. The pIC50 [3, 18] was under 3.60.

With `COc1cc2ncnc(Nc3cccc(I)c3)c2cc1OC` [HI-P271, 4-(3′-Iodophenyl)-amino-6,7-dimethoxyquinazoline] the pIC50 [4, 15] was under 3.60, the pIC50 [1, 16] was under 3.60 and the pIC50 [2, 17] was 5.02. It also gave a pIC50 [3, 18] of 5.21.

For `COc1cc2ncnc(Nc3cc(I)c(O)c(I)c3)c2cc1OC` [HI-P294, 4-(4′-Hydroxy-3,5-diiodophenyl)-amino-6,7-dimethoxy-quinazoline], the pIC50 [4, 15] was under 3.60, the pIC50 ([4]; Table 4, OH substituted) was under 3.60 and the pIC50 [1, 16] was under 3.60. The pIC50 [1, 12] was under 3.60, the pIC50 [2, 17] was under 3.60 and the pIC50 [2, 13] was under 3.60. It also gave a pIC50 [3, 18] of under 3.60 and a pIC50 [3, 14] of under 3.60.

`COc1cc2ncnc(Nc3ccc(O)c(I)c3)c2cc1OC` [HI-P299, 4-(4′-Hydroxy-3′-iodophenyl)-amino-6,7-dimethoxyquinazoline] was tested, and the pIC50 [4, 15] was under 3.60, the pIC50 ([4]; Table 4, OH substituted) was under 3.60 and the pIC50 [1, 16] was under 3.60. For the same molecule, the pIC50 [1, 12] was under 3.60, the pIC50 [2, 17] was 4.22 and the pIC50 [2, 13] was 4.29. It also gave a pIC50 [3, 18] of 4.81 and a pIC50 [3, 14] of 4.18.

Work on `COc1cc2ncnc(Nc3ccc(I)cc3)c2cc1OC` [HI-P300, 4-(4′-Iodophenyl)-amino-6,7-dimethoxyquinazoline] yielded a pIC50 [4, 15] of 3.93, a pIC50 [1, 16] of 4.14 and a pIC50 [2, 17] of 4.23. For the same molecule, the pIC50 [3, 18] was 4.24.

Molecule `COc1cc2ncnc(Nc3ccc(Cl)c4ccccc34)c2cc1OC` [HI-P415, 4-(4′-Chloronaphthy-1′)-amino-6,7-dimethoxyquinazoline] has a pIC50 [1, 8] of 4.42, a pIC50 [2, 9] of under 3.60 and a pIC50 [3, 10] of 4.17.
